In publication PMC5307958 (Scientific Reports, 2017):
“Also recorded” adds a separate entry of the source. Where a SMILES comes first, the peptide text is derived from it. Bridges are numbered along the chain shown (N, C = ends).

Key:
[1] = system: wild-type worms (N2 Bristol; BK channel ortholog SLO-1); assay: C. elegans crawl speed, wild-type; type: in vivo, Caenorhabditis elegans; conditions: for crawl speed relative to controls: 30 min pre-incubation in puddle, age-matched day one adults, tracked 1 min, p < 0.001; for effect on crawl speed: wild type, 30 min, p<0.001, N=81-210, planned Student's t-tests
Procedure: Worms were cultivated at 20 °C as described with OP50 bacteria. Worms cultured on plates contaminated with fungi or other bacteria were excluded from this study. The reference wild-type strain was N2 Bristol. The reference slo-1(null) strain and background for transgenic strains was NM1968, harboring the previously characterized null allele, js379[29]. Multi-site gateway technology (Invitrogen) was used to construct plasmids. […] of the native slo-1 promoter (Pslo-1) and the traditional unc-54 UTR were used in combination with slo-1a(cDNA)::mCherry for a rescue construct. To test rescue with the human BK channel, an hslo(ZERO isoform, cDNA)::mCherry version was constructed. The slo-1(+) and hslo(+) plasmids were injected at a concentration of 20 and 10 ng/μl, respectively. The co-injection reporter PCFJ90 (1.25 ng/μl) was used to ensure proper transformation of the arrays. As such, JPS345 carried vxEx345, an extrachromosomal array containing [Pslo-1::slo-1::mCherry::unc-54UTR,Pmyo-2::mCherry::unc-54UTR]. JPS340 carried […], an extrachromosomal array containing [Pslo-1::hslo::mCherry::unc-54UTR,Pmyo-2::mCherry::unc-54UTR].
Age-matched day one adults were cleaned of bacteria by letting them crawl around on an unseeded plate and then moved into a puddle of NGM or peptide dissolved in NGM on another unseeded plate. NGM and peptide treatment groups were always run in tandem to control for behavioral variance. While much shorter than typical drug applications in C. elegans, brief application in liquid was chosen to avoid potential catabolic by-products of incubation on metabolically active E. coli. Higher LS3 concentrations were used to compensate. The puddle was refreshed 1–2 times as needed, but let to fully absorb into the agar by 30 minutes. After 30 minutes, crawl behavior was videoed (Flea2 camera, Point Grey Research, Canada; StreamPix 3, NorPix, Canada). Copper rings restricted movement to a proscribed area. The worms were tracked offline using custom macros (Image-Pro, MediaCybernetics, Rockville, MD) for 1 minute to obtain crawl speed (cm/min). Group means ± SEM for peptide-treated vs. vehicle-treated controls were compared at each concentration with Student’s t-tests. Rescue analysis was completed with two-way ANOVA (SigmaPlot, San Jose, CA). Crawl speeds for the peptide treated groups were also normalized to the performance of yoked controls. Normalized group means±SEM were compared vs. slo-1 null performance by two-way ANOVA.

5HT 1A = assay: Competition radioligand binding (NIMH PDSP); conditions: radioligand 8-OH-DPAT, measured 4 times
Procedure: (§1) LS3 was screened against a comprehensive panel of CNS-based proteins. Detailed protocols can be found within the US National Institute of Mental Health Psychoactive Drug Screening Program (NIMH PDSP) Assay Protocol Book (version II), by B. L. Roth, March 2013 (available at: http://pdsp.med.unc.edu/PDSP%20Protocols%20II%202013-03-28.pdf). […] Radioactivity in the presence of the LS3 (sample) was calculated with the following equation and expressed as a percent inhibition: % inhibition = (sample CPM – non-specific CPM)/Total CPM – non-specific CPM) × 100. Total binding was measured with no competing ligand. Non-specific binding was measured in the presence of reference compound. The % inhibition by LS3 was measured 4 times for each receptor.

5HT 1B = assay: Competition radioligand binding (NIMH PDSP); conditions: radioligand GR127543, measured 4 times
Procedure: as §1

5HT 2A = assay: Competition radioligand binding (NIMH PDSP); conditions: radioligand Ketanserin, measured 4 times
Procedure: as §1

5HT 2B = assay: Competition radioligand binding (NIMH PDSP); conditions: radioligand LSD, measured 4 times
Procedure: as §1

Adrenergic Alpha1A = assay: Competition radioligand binding (NIMH PDSP); conditions: radioligand Prazosin, measured 4 times
Procedure: as §1

Adrenergic Alpha2A = assay: Competition radioligand binding (NIMH PDSP); conditions: radioligand Clonidine, measured 4 times
Procedure: as §1

BZP rat brain site = assay: Competition radioligand binding (NIMH PDSP); conditions: radioligand Flunitrazepam, measured 4 times
Procedure: as §1

Dopamine D1 = assay: Competition radioligand binding (NIMH PDSP); conditions: radioligand SCH233930, measured 4 times
Procedure: as §1

Dopamine D2 = assay: Competition radioligand binding (NIMH PDSP); conditions: radioligand N-methylspiperone, measured 4 times
Procedure: as §1

GABAA = assay: Competition radioligand binding (NIMH PDSP); conditions: radioligand Muscimol, measured 4 times
Procedure: as §1

Histamine H1 = assay: Competition radioligand binding (NIMH PDSP); conditions: radioligand Pyrilamine, measured 4 times
Procedure: as §1

Histamine H3 = assay: Competition radioligand binding (NIMH PDSP); conditions: radioligand α-methylhistamine, measured 4 times
Procedure: as §1

NET = assay: Competition radioligand binding (NIMH PDSP); conditions: radioligand Nisoxetine, measured 4 times
Procedure: as §1

Opioid DOR = assay: Competition radioligand binding (NIMH PDSP); conditions: radioligand DADLE, measured 4 times
Procedure: as §1

Opioid MOR = assay: Competition radioligand binding (NIMH PDSP); conditions: radioligand DAMGO, measured 4 times
Procedure: as §1

SERT = assay: Competition radioligand binding (NIMH PDSP); conditions: radioligand Citalopram, measured 4 times
Procedure: as §1

Sigma 2 = assay: Competition radioligand binding (NIMH PDSP); conditions: radioligand DTG, measured 4 times
Procedure: as §1

hERG = assay: Competition radioligand binding (NIMH PDSP); conditions: human, probe Dofetilide (radioligand), measured 4 times, read-out: % inhibition by 10 µM LS3
Procedure: as §1

For `CC(C)C[C@@H]1NC(=O)CNC(=O)[C@H](CCCNC(=N)N)NC(=O)[C@H](CCCNC(=N)N)NC(=O)[C@@H](N)CSSC[C@@H](C(=O)O)NC(=O)[C@H](C(C)C)NC(=O)[C@H](CCC(N)=O)NC(=O)[C@H](C(C)C)NC1=O` [LS3] (H-CRRGLVQVC-OH; disulfide 1-9; N-terminus and C-terminus assumed), the “crawl speed relative to controls” value ([1]; 250 μM LS3 in NGM) was ~ 85%, the “crawl speed relative to controls” value ([1]; 750 μM LS3 in NGM) was ~ 70% and the “effect on crawl speed” value ([1]; 75 µM LS3 vs. vehicle) was “reduced”. The “effect on crawl speed” value ([1]; 250 µM LS3 vs. vehicle) was “reduced”, the “effect on crawl speed” value ([1]; 750 µM LS3 vs. vehicle) was “reduced” and the “effect on crawl speed / locomotion” value ([1]; wild-type, LS3 in NGM, 30 min bath, WT vs. slo-1(null) at 250 and 750 μM: p < 0.05 and p < 0.001, N = 139–372) was “reduced crawl speed; also recorded: slowed locomotion in a concentration-dependent manner”. The “% inhibition by 10 µM LS3” value (5HT 1A) was 11.4%, the “% inhibition by 10 µM LS3” value (5HT 1B) was 2.8% and the “% inhibition by 10 µM LS3” value (5HT 2A) was 16.2%. For the same compound, the “% inhibition by 10 µM LS3” value (5HT 2B) was 3.2%, the “% inhibition by 10 µM LS3” value (Adrenergic Alpha1A) was 11.3% and the “% inhibition by 10 µM LS3” value (Adrenergic Alpha2A) was 3.2%. For the same compound, the “% inhibition by 10 µM LS3” value (BZP rat brain site) was 5.1%, the “% inhibition by 10 µM LS3” value (Dopamine D1) was 15.7% and the “% inhibition by 10 µM LS3” value (Dopamine D2) was 20.9%. The “% inhibition by 10 µM LS3” value (GABAA) was 19.3%, the “% inhibition by 10 µM LS3” value (Histamine H1) was 14.8% and the “% inhibition by 10 µM LS3” value (Histamine H3) was 5.1%. For the same compound, the “% inhibition by 10 µM LS3” value (NET) was 6.7%, the “% inhibition by 10 µM LS3” value (Opioid DOR) was 1.9% and the “% inhibition by 10 µM LS3” value (Opioid MOR) was 2.2%. The “% inhibition by 10 µM LS3” value (SERT) was 0.1%, the “% inhibition by 10 µM LS3” value (Sigma 2) was 24.3% and the inhibition at 10 µM (hERG) was 21.2%.
